Patent publication US20240059698A1 (Accutar Biotechnology Inc., priority 2022, published 2024)
Where two headings read alike, the source gives them in different places.

Assays:
Assay type in all cases: cell-based
[1] = tested on: HCC827-ASV cells (human EGFR exon 20 insertion mutant V769_D770insASV); experiment: Cell growth inhibition (CellTiter-Glo), HCC827-ASV; details: 72 h, HCC827-ASV cells, 3 days, CellTiter-Glo, read-out: Cell growth inhibition, GI50 (nM) HCC827-ASV
Procedure: Generation of HCC827-SVD, HCC827-ASV, and HCC827-YVMA cell lines. The HCC827-SVD cell line was generated by first transducing HCC827 cells (ATCC) with lentiviral particles expressing codon-optimized human EGFR exon 20 insertion mutant D770_N771insSVD, and then selecting under 5 µg/mL puromycin treatment for a week. The resulting cells were further transduced with lentiviral particles carrying EGFR sgRNA and CAS9 to knockout the endogenous alleles of EGER and then selected under 500 µg/mL hygromycin B treatment for two weeks. The limiting dilution approach was used to subsequently generate the single clone of the HCC827-SVD stable cell line. Endogenous EGFR knockout was confirmed by Sanger sequencing of cell genomic DNA, and expression of exogenous mutant EGFR was verified by Western blot analysis.
HCC827-ASV and HCC827-YVMA cell lines were generated in a similar approach as HCC827-SVD, except that HCC827 cells (ATCC) were first transduced with lentiviral particles expressing codon-optimized human EGFR exon 20 insertion mutant V769_D770insASV and human ERBB2 exon20 insertion mutant A775_G776ins YVMA, respectively.
2. Cell Growth Inhibition for HCC827, HCC827-SVD, HCC827-ASV, HCC827-YVMA, and A431.
HCC827(ATCC), HCC827-SVD, HCC827-ASV, and HCC827-YVMA cells were seeded in 96-well plates at 5000 cells/well in 90 μL of RPMI growth medium containing 10% FBS and 1% Penicillin Streptomycin. A431 (ATCC) cells were seeded in 96-well plates at 5000 cells/well in 90 μL of DMEM growth medium containing 10% FBS and 1% Penicillin Streptomycin. Cells were incubated at 37° C. overnight and then administered with 10 μL 10× test compounds prepared in the growth medium at various concentrations. After administration of the compounds, cells were incubated at 37° C. for 3 days. Before the CellTiter-Glo assay, the plates were equilibrated at room temperature for approximately 30 minutes. 100 ul of CellTiter-Glo reagent (Promega) was added to each well. The plates were then incubated at room temperature for 10 minutes and luminescence was recorded by the EnSight® multimode plate reader (PerkinElmer). Table 7 listed selected compounds in cellular growth assay.

[2] = tested on: HCC827-YVMA cells (human ERBB2 exon20 insertion mutant A775_G776ins YVMA); experiment: Cell growth inhibition (CellTiter-Glo), HCC827-YVMA; details: 72 h, read-out: Cell growth inhibition, GI50 (nM) HCC827-YVMA
Outline: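 Growth in RPMI with 10% FBS was measured by CellTiter-Glo luminescence after 3 days at 37 °C with test compounds across a concentration range. The single-clone HCC827 lines carry a lentiviral YVMA (ERBB2) or ASV (EGFR) exon 20 insertion, with endogenous EGFR removed via sgRNA/Cas9.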

[3] = tested on: HCC827-SVD cells (human EGFR exon 20 insertion mutant D770_N771insSVD); experiment: Cell growth inhibition (CellTiter-Glo), HCC827-SVD; details: 72 h, 3 days
Outline: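 Growth read by CellTiter-Glo luminescence after 3-day compound exposure at 37 °C. Engineered clonal HCC827 line (native EGFR deleted by CRISPR, mutant EGFR re-expressed) plated at 5000 cells/well in 10% FBS RPMI the night before dosing.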

A431 cells = experiment: Cell growth inhibition (CellTiter-Glo), A431; details: Homo sapiens, A-431, 72 h, 3 days
Outline: (§1)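 Readout was CellTiter-Glo luminescence after 3-day compound treatment at 37° C. Cells were seeded at 5000/well the previous night: HCC827 in RPMI/10% FBS, A431 in DMEM/10% FBS.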

HCC827 cells = experiment: Cell growth inhibition (CellTiter-Glo), HCC827; details: Homo sapiens, 72 h, 3 days
Outline: as §1

[4] = HCC827-YVMA cells, 3 days, CellTiter-Glo

GI50 [1] [nM] | GI50 [2, 4] [nM] | GI50 [3] [nM] | GI50 (A431 cells) [nM] | GI50 (HCC827 cells) [nM] | Structure (SMILES) | GI50 [2] [nM]
< 50 | < 50 | < 50 |  |  | C=CC(=O)N1CCC(c2c[nH]c3ncnc(Nc4ccc5c(cnn5Cc5cccc(F)c5)c4)c23)CC1 [Compound 226, 1-(4-(4-((1-(3-fluorobenzyl)-1H-indazol-5-yl)amino)-7H-pyrrolo[2,3-d]pyrimidin-5-yl)piperidin-1-yl)prop-2-en-1-one] | 
< 50 | < 50 | < 50 |  |  | C=CC(=O)N1CCC(c2c[nH]c3ncnc(Nc4ccc(OCc5csc(C)n5)c(Cl)c4)c23)CC1 [Compound 217, 1-(4-(4-((3-chloro-4-((2-methylthiazol-4-yl)methoxy)phenyl)amino)-7H-pyrrolo[2,3-d]pyrimidin-5-yl)piperidin-1-yl)prop-2-en-1-one] | 
< 50 | < 50 | < 50 |  |  | C=CC(=O)N1CCC(c2c[nH]c3ncnc(Nc4cc(Cl)c(OCc5ccccn5)cc4F)c23)CC1 [Compound 221, 1-(4-(4-((5-chloro-2-fluoro-4-(pyridin-2-ylmethoxy)phenyl)amino)-7H-pyrrolo[2,3-d]pyrimidin-5-yl)piperidin-1-yl)prop-2-en-1-one] | 
< 50 | < 50 | < 50 |  |  | C=CC(=O)N1CCC(c2c[nH]c3ncnc(Nc4ccc(OCc5cscn5)c(Cl)c4F)c23)CC1 [Compound 216, 1-(4-(4-((3-chloro-2-fluoro-4-(thiazol-4-ylmethoxy)phenyl)amino)-7H-pyrrolo[2,3-d]pyrimidin-5-yl)piperidin-1-yl)prop-2-en-1-one] | 
< 50 | < 50 | < 50 |  |  | [2H]C([2H])(Oc1ccc(Nc2ncnc3[nH]cc(C4CCN(C(=O)C=C)CC4)c23)cc1Cl)c1ccccn1 [Compound 227, 1-(4-(4-((3-chloro-4-(pyridin-2-ylmethoxy-d2)phenyl)amino)-7H-pyrrolo[2,3-d]pyrimidin-5-yl)piperidin-1-yl)prop-2-en-1-one] | 
< 50 | < 50 | < 50 |  |  | C=CC(=O)N1CCC(c2c[nH]c3ncnc(Nc4ccc(OCc5cccc(F)c5)c(Cl)c4)c23)CC1 [Compound 228, 1-(4-(4-((3-chloro-4-((3-fluorobenzyl)oxy)phenyl)amino)-7H-pyrrolo[2,3-d]pyrimidin-5-yl)piperidin-1-yl)prop-2-en-1-one] | 
< 50 | < 50 | < 50 |  |  | C=CC(=O)N1CCC(c2c[nH]c3ncnc(Nc4ccc(OCc5ncc(F)s5)c(Cl)c4)c23)CC1 [Compound 223, 1-[4-[4-[3-chloro-4-[(5-fluorothiazol-2-yl)methoxy]anilino]-7H-pyrrolo[2,3-d]pyrimidin-5-yl]-1-piperidyl]prop-2-en-1-one] | 
< 50 | < 50 | < 50 |  |  | C=CC(=O)N1CCC(c2c[nH]c3ncnc(Nc4ccc(OCc5ncsc5C)c(Cl)c4)c23)CC1 [Compound 219, 1-(4-(4-((3-chloro-4-((5-methylthiazol-4-yl)methoxy)phenyl)amino)-7H-pyrrolo[2,3-d]pyrimidin-5-yl)piperidin-1-yl)prop-2-en-1-one] | 
< 50 | < 50 | < 50 |  |  | C=CC(=O)N1CCC(c2c[nH]c3ncnc(Nc4ccc(OCc5ccccn5)c(Br)c4F)c23)CC1 [Compound 220, 1-[4-[4-[3-bromo-2-fluoro-4-(2-pyridylmethoxy)anilino]-7H-pyrrolo[2,3-d]pyrimidin-5-yl]-1-piperidyl]prop-2-en-1-one] | 
50 to 200 | 50 to 200 | 50 to 200 |  |  | C=CC(=O)N1CCC(c2c[nH]c3ncnc(Nc4ccc(Oc5ccnc(NC(=O)C6CCC6)c5)cc4F)c23)CC1 [Compound 231, N-(4-(4-((5-(1-acryloylpiperidin-4-yl)-7H-pyrrolo[2,3-d]pyrimidin-4-yl)amino)-3-fluorophenoxy)pyridin-2-yl)cyclobutanecarboxamide] | 
 | 50 to 200 | 200 to 1000 | > 1000 | > 1000 | C=CC(=O)N1CCC(c2n[nH]c3ncnc(Nc4ccc(Oc5ccnc(N6CC(C)(OC)C6)c5)cc4F)c23)CC1 [Compound 178, 1-(4-(4-((2-fluoro-4-((2-(3-methoxy-3-methylazetidin-1-yl)pyridin-4-yl)oxy)phenyl)amino)-1H-pyrazolo[3,4-d]pyrimidin-3-yl)piperidin-1-yl)prop-2-en-1-one] | 
 | 50 to 200 | 50 to 200 | > 1000 | 200 to 1000 | C=CC(=O)N1CCC(c2ccn3ncnc(Nc4ccc(Oc5ccnc(N6CC7C(C6)C7(F)F)c5)cc4F)c23)CC1 (centres unmarked) [Compound 200, 1-(4-(4-((4-((2-(6,6-difluoro-3-azabicyclo[3.1.0]hexan-3-yl)pyridin-4-yl)oxy)-2-fluorophenyl)amino)pyrrolo[2,1-f][1,2,4]triazin-5-yl)piperidin-1-yl)prop-2-en-1-one] | 
 | < 50 | < 50 | 50 to 200 | < 50 | C=CC(=O)N1CCC(c2c[nH]c3ncnc(Nc4ccc(OCc5ccccn5)c(F)c4)c23)CC1 [Compound 111, 1-(4-(4-((3-fluoro-4-(pyridin-2-ylmethoxy)phenyl)amino)-7H-pyrrolo[2,3-d]pyrimidin-5-yl)piperidin-1-yl)prop-2-en-1-one] | 
 | 50 to 200 | 200 to 1000 | > 1000 | > 1000 | C=CC(=O)N1CCC(c2ccn3ncnc(Nc4ccc(Oc5ccnc(N6CC7(CCOCC7)C6)c5)cc4F)c23)CC1 [Compound 205, 1-(4-(4-((4-((2-(7-oxa-2-azaspiro[3.5]nonan-2-yl)pyridin-4-yl)oxy)-2-fluorophenyl)amino)pyrrolo[2,1-f][1,2,4]triazin-5-yl)piperidin-1-yl)prop-2-en-1-one] | 
 | > 1000 | 50 to 200 | > 1000 | > 1000 | C=CC(=O)N1CCC(c2c[nH]c3ncnc(Nc4ccc(Oc5ccnc(N6C[C@H](OC)[C@H](OC)C6)c5)cc4F)c23)CC1 [Compound 139, 1-(4-(4-((4-((2-((3R,4S)-3,4-dimethoxypyrrolidin-1-yl)pyridin-4-yl)oxy)-2-fluorophenyl)amino)-7H-pyrrolo[2,3-d]pyrimidin-5-yl)piperidin-1-yl)prop-2-en-1-one] | 
 | 50 to 200 | 50 to 200 | > 1000 | > 1000 | C=CC(=O)N1CCC(c2c[nH]c3ncnc(Nc4ccc(Oc5ccnc(N6CCC[C@@H](OC)C6)c5)cc4F)c23)CC1 [Compound 147, (R)-1-(4-(4-((2-fluoro-4-((2-(3-methoxypiperidin-1-yl)pyridin-4-yl)oxy)phenyl)amino)-7H-pyrrolo[2,3-d]pyrimidin-5-yl)piperidin-1-yl)prop-2-en-1-one] | 
 | 200 to 1000 | 200 to 1000 | > 1000 | > 1000 | C=CC(=O)N1CCC(c2c[nH]c3ncnc(Nc4ccc(Oc5ccnc(N6CCC(F)(F)C6)c5)cc4F)c23)CC1 [Compound 145] | 

Structure (SMILES) | GI50 [1] [nM] | GI50 [2, 4] [nM] | GI50 [3] [nM] | GI50 (A431 cells) [nM] | GI50 (HCC827 cells) [nM] | GI50 [2] [nM]
C=CC(=O)N1CCC(c2n[nH]c3ncnc(Nc4ccc(Oc5ccnc(-c6csc(C)n6)c5)cc4F)c23)CC1 [Compound 171, 1-(4-(4-((2-fluoro-4-((2-(2-methylthiazol-4-yl)pyridin-4-yl)oxy)phenyl)amino)-1H-pyrazolo[3,4-d]pyrimidin-3-yl)piperidin-1-yl)prop-2-en-1-one] |  |  | 50 to 200 | > 1000 | 200 to 1000 | < 50
